Data on 22 compounds can be found in PubChem BioAssay AID330 (DTP/NCI, 2004).

The assay relates to P388 leukemia ip, CD2F1 mice, survival T/C. The experiment in a line: NCI In Vivo Anticancer Drug Screen. Data for tumor model P388 Leukemia (intraperitoneal) in CD2F1 (CDF1) mice. The note with it: endpoint: median survival time, higher = longer survival. The essentials: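 Mice carrying the transplanted tumor received test compound or vehicle. Survival was recorded in each group, and the value is the treated-group measurement divided by that of the vehicle-treated control group.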

Setting [1] is: dose: 50.0 mg/kg/injection, schedule: Q01DX005 (ip), vehicle: Klucel (hydroxypropylcellulose) (HPC).
Where [2] appears, read: dose: 100.0 mg/kg/injection, schedule: Q01DX005 (ip), vehicle: Klucel (hydroxypropylcellulose) (HPC).
Where [3] appears, read: dose: 200.0 mg/kg/injection, schedule: Q01DX005 (ip), vehicle: Klucel (hydroxypropylcellulose) (HPC).
Where [4] appears, read: dose: 50.0 mg/kg/injection, schedule: Q01DX009 (ip), vehicle: saline.
Setting [5] is: dose: 100.0 mg/kg/injection, schedule: Q01DX009 (ip), vehicle: saline.
Setting [6] is: dose: 50.0 mg/kg/injection, schedule: Q01DX005 (ip), vehicle: saline with Tween-80.
The mark [7] stands for this setting: dose: 100.0 mg/kg/injection, schedule: Q01DX005 (ip), vehicle: saline with Tween-80.
Where [8] appears, read: dose: 200.0 mg/kg/injection, schedule: Q01DX005 (ip), vehicle: saline with Tween-80.
Where [9] appears, read: dose: 50.0 mg/kg/injection, schedule: Q01DX009 (ip), vehicle: saline with Tween-80.
Setting [10] is: dose: 100.0 mg/kg/injection, schedule: Q01DX009 (ip), vehicle: saline with Tween-80.
Setting [11] is: dose: 200.0 mg/kg/injection, schedule: Q01DX009 (ip), vehicle: saline with Tween-80.

“And” between values parts separate entries of the source, which are not always exact repeats. Equal entries are not always repeated. Toxic doses and inconclusive results are not listed.

For the compound `CC(CCN1CCOCC1)Nc1ccnc2cc(Cl)ccc12` (stereo not given), the T/C was 98 % of control (dose: 12.5 mg/kg/injection, schedule: Q01DX005 (ip), vehicle: saline); 102 % of control (dose: 25.0 mg/kg/injection, schedule: Q01DX005 (ip), vehicle: saline); 107 % of control and 95 % of control (dose: 50.0 mg/kg/injection, schedule: Q01DX005 (ip), vehicle: saline).

As for `C/C(=N/NC(=O)c1ccccc1)c1ccc(Cl)cc1Cl`, the T/C (dose: 12.5 mg/kg/injection, schedule: Q01DX009 (ip), vehicle: Klucel (hydroxypropylcellulose) (HPC)) was 90 % of control.

Take `Cc1ccc2c(N=Nc3ccc(C(=N)N)cc3)ccc(O)c2n1`: the T/C is, setting by setting: (dose: 25.0 mg/kg/injection, schedule: Q01DX005 (ip), vehicle: Klucel (hydroxypropylcellulose) (HPC)) 104 % of control; under setting [1], 113 % of control; under setting [2], 111 % of control; under setting [3], 105 % of control.

With `c1ccc2c(c1)O[As](O[As]1Oc3ccccc3O1)O2`, the T/C (dose: 2.5 mg/kg/injection, schedule: Q01DX009 (ip), vehicle: saline with Tween-80) is 106 % of control; the T/C (dose: 5.0 mg/kg/injection, schedule: Q01DX009 (ip), vehicle: saline with Tween-80) was 122 % of control; the T/C (dose: 20.0 mg/kg/injection, schedule: Q01DX009 (ip), vehicle: saline with Tween-80) is 161 % of control.

In the case of `CCN(CC)CCNC(=O)Cc1cccc2c(=O)cc(-c3ccccc3)oc12`, the T/C reads like this: under setting [4], 108 % of control; under setting [5], 99 % of control; (dose: 200.0 mg/kg/injection, schedule: Q01DX009 (ip), vehicle: saline) 97 % of control.

`CCOC(=O)C[P+](c1ccccc1)(c1ccccc1)c1ccccc1`: the T/C by setting is: (dose: 3.3 mg/kg/injection, schedule: Q01DX009 (ip), vehicle: saline sonified) 95 % of control; (dose: 6.25 mg/kg/injection, schedule: Q01DX009 (ip), vehicle: saline sonified) 90 % of control; (dose: 12.5 mg/kg/injection, schedule: Q01DX009 (ip), vehicle: saline sonified) 100 % of control; (dose: 25.0 mg/kg/injection, schedule: Q01DX009 (ip), vehicle: saline sonified) 100 % of control.

As for `CN1C(=O)C2CC(=O)NC(=O)C2C1=O` (stereo not given), the T/C under setting [6] is 97 % of control, the T/C under setting [7] was 96 % of control and the T/C under setting [8] is 101 % of control.

For the compound `COc1cccc2c1C(=O)c1c(O)c3c(c(O)c1C2=O)CC(O)(C(=O)CO)CC3OC1CC(N(Cc2ccccc2)Cc2ccccc2)C(O)C(C)O1` (stereo not given), the T/C (dose: 0.2 mg/kg/injection, schedule: Q01DX009 (ip), vehicle: water) was 115 % of control; the T/C (dose: 1.56 mg/kg/injection, schedule: Q01DX009 (ip), vehicle: water) was 151 % of control; the T/C (dose: 3.13 mg/kg/injection, schedule: Q01DX009 (ip), vehicle: water) was 156 % of control; the T/C (dose: 6.25 mg/kg/injection, schedule: Q01DX009 (ip), vehicle: water) is 175 % of control.

Take `CCN(CC)CCOCc1cccc2c(=O)cc(-c3ccccc3)oc12`: the T/C by setting is: under setting [4], 105 % of control; under setting [5], 101 % of control.

`O=C1C(Cl)=C(Sc2nnc3c4ccccc4c4ccccc4c3n2)C(=O)c2ccccc21`: the T/C is 100 % of control under setting [9], 91 % of control under setting [10] and 99 % of control under setting [11].

Take `CC1(C)CC2C3=CCC4C5(C)CCC(O)C(C)(C)C5CCC4(C)C3(C)CCC2(CO)C(O)C1O` (stereo not given): the T/C (dose: 3.25 mg/kg/injection, schedule: Q01DX005 (ip), vehicle: Klucel (hydroxypropylcellulose) (HPC)) is 99 % of control; the T/C (dose: 6.5 mg/kg/injection, schedule: Q01DX005 (ip), vehicle: Klucel (hydroxypropylcellulose) (HPC)) is 99 % of control; the T/C (dose: 13.0 mg/kg/injection, schedule: Q01DX005 (ip), vehicle: Klucel (hydroxypropylcellulose) (HPC)) is 99 % of control; the T/C (dose: 26.0 mg/kg/injection, schedule: Q01DX005 (ip), vehicle: Klucel (hydroxypropylcellulose) (HPC)) was 98 % of control.

As for `N#Cc1ccc(NC(=O)Nc2nccs2)cc1`, the T/C reads like this: (dose: 12.5 mg/kg/injection, schedule: Q01DX009 (ip), vehicle: distilled water + Tween-80) 108 % of control; (dose: 25.0 mg/kg/injection, schedule: Q01DX009 (ip), vehicle: distilled water + Tween-80) 117 % of control.

Consider `O=C(C(c1ccccc1)c1ccccc1)N1CCCCC1c1ccccc1` (stereo not given), for which the T/C runs as follows: under setting [6], 102 % of control; under setting [7], 92 % of control; under setting [8], 97 % of control.

`NCCN.NCCN.NCCN.[Cl-].[Pt]`: the T/C (dose: 1.56 mg/kg/injection, schedule: Q01DX009 (ip), vehicle: saline) was 101 % of control; the T/C (dose: 3.13 mg/kg/injection, schedule: Q01DX009 (ip), vehicle: saline) was 101 % of control; the T/C (dose: 6.25 mg/kg/injection, schedule: Q01DX009 (ip), vehicle: saline) was 107 % of control; the T/C (dose: 12.5 mg/kg/injection, schedule: Q01DX009 (ip), vehicle: saline) was 99 % of control.

Turning to `Nc1cccc2c1C(O)c1ccccc1-2` (stereo not given), the T/C is 95 % of control under setting [6], 99 % of control under setting [7] and 90 % of control under setting [8].

For the compound `CCC12OCC(C)(C)N1OC(=O)N2c1ccccc1` (stereo not given), the T/C was 96 % of control under setting [1], 96 % of control under setting [2] and 97 % of control under setting [3].

On to `O=C1C(Br)=C(c2ccccc2)S(=O)(=O)c2ccccc21`, for which the T/C (dose: 60.0 mg/kg/injection, schedule: Q01DX005 (ip), vehicle: Klucel (hydroxypropylcellulose) (HPC)) was 109 % of control; the T/C (dose: 120.0 mg/kg/injection, schedule: Q01DX005 (ip), vehicle: Klucel (hydroxypropylcellulose) (HPC)) is 114 % of control; the T/C (dose: 240.0 mg/kg/injection, schedule: Q01DX005 (ip), vehicle: Klucel (hydroxypropylcellulose) (HPC)) was 114 % of control.

On to `ClCSc1nc2cc(Cl)ccc2s1`, for which the T/C was 95 % of control under setting [9], 100 % of control under setting [10] and 95 % of control under setting [11].

Consider `COc1ccc2c(c1)NC(O)c1cccn1C2=O` (stereo not given), for which the T/C (dose: 0.1 mg/kg/injection, schedule: Q01DX005 (ip), vehicle: water) was 91 % of control; the T/C (dose: 0.2 mg/kg/injection, schedule: Q01DX005 (ip), vehicle: water) is 91 % of control; the T/C (dose: 0.4 mg/kg/injection, schedule: Q01DX005 (ip), vehicle: water) is 93 % of control; the T/C (dose: 0.8 mg/kg/injection, schedule: Q01DX005 (ip), vehicle: water) is 96 % of control; the T/C (dose: 1.6 mg/kg/injection, schedule: Q01DX005 (ip), vehicle: water) is 102 % of control; the T/C (dose: 5.0 mg/kg/injection, schedule: Q01DX005 (ip), vehicle: distilled water + Tween-80) was 100 % of control. Moreover, the T/C is, setting by setting: (dose: 10.0 mg/kg/injection, schedule: Q01DX005 (ip), vehicle: distilled water + Tween-80) 94 % of control; (dose: 20.0 mg/kg/injection, schedule: Q01DX005 (ip), vehicle: distilled water + Tween-80) 100 % of control; (dose: 40.0 mg/kg/injection, schedule: Q01DX005 (ip), vehicle: distilled water + Tween-80) 95 % of control; (dose: 80.0 mg/kg/injection, schedule: Q01DX005 (ip), vehicle: distilled water + Tween-80) 91 % of control.

On to `Cn1cnc([N+](=O)[O-])c1Sc1ncccc1C(=O)O`, for which the T/C runs as follows: under setting [1], 112 % of control; under setting [2], 114 % of control; under setting [3], 105 % of control.

Take `CSc1nc(NC2OC(COC(C)=O)C(OC(C)=O)C(OC(C)=O)C2OC(C)=O)c(N=C(C)C(C)=O)c(=O)[nH]1` (stereo not given): the T/C was 100 % of control (dose: 60.0 mg/kg/injection, schedule: Q01DX005 (ip), vehicle: saline with Tween-80); 96 % of control (dose: 120.0 mg/kg/injection, schedule: Q01DX005 (ip), vehicle: saline with Tween-80); 86 % of control (dose: 240.0 mg/kg/injection, schedule: Q01DX005 (ip), vehicle: saline with Tween-80).

Turning to `c1ccc(N2CCCCCN2c2ccccc2)cc1`, the T/C (dose: 25.0 mg/kg/injection, schedule: Q01DX001 (ip), vehicle: saline with Tween-80) is 100 % of control; the T/C (dose: 50.0 mg/kg/injection, schedule: Q01DX001 (ip), vehicle: saline with Tween-80) is 100 % of control; the T/C (dose: 100.0 mg/kg/injection, schedule: Q01DX001 (ip), vehicle: saline with Tween-80) was 100 % of control; the T/C (dose: 200.0 mg/kg/injection, schedule: Q01DX001 (ip), vehicle: saline with Tween-80) is 92 % of control.
